# Columns and labels:
# TYK2 JH2 domain = TYK2 JH2 domain (Homo sapiens (Human), UniProt P29597); assay: TYK2 JH2 NanoBRET assay; assay type: binding; conditions: Table 20, read-out: TYK2 IC50
# Protocol: HEK293T cells were transfected with NanoLuc-TYK2 JH2 Fusion Vector (Promega, customized) using Trans-IT reagent (Mirus, #MIR2700) and incubated for overnight in 37° C. incubator. […] Add 85 µL of cell suspension into white, polypropylene, 96-well plates (Corning, #3600). 90 µL of cells were used for no tracer control samples. 5 µL of diluted NanoBRET K10 tracer (Promega, #CS1810C122) were added to cells to a final concentration of 0.5 µM. Test compounds were diluted into DMSO, and then phenol-free opti-MEM to 10X of final concentration. 10 µL of diluted compounds were added into each well. The cells were incubated with test compound and tracer for 2 hours. 3XNanoBRET® Nano-Glo® Substrate and Extracellular NanoLuc® Inhibitor mixture were prepared and 50 µL of the mixture were added into the wells and mixed. […] NanoBRET signal was determined by using the ratio of acceptor signal and donor signal.
# human JAK2 = human JAK2 (Homo sapiens (Human), UniProt O60674); assay: JAK2 TR-FRET kinase assay; assay type: biochemical; conditions: JAK2 0.025 nM
# human JAK3 = human JAK3 (Homo sapiens (Human), UniProt P52333); assay: JAK3 TR-FRET kinase assay; assay type: biochemical; conditions: JAK3 0.0125 nM
# human JAK1 = human JAK1 (Homo sapiens (Human), UniProt P23458); assay: JAK1 TR-FRET kinase assay; assay type: biochemical; conditions: TR-FRET, JAK1 2.5 nM
# human JAK1, sequence (P23458 whole entry, the tested form may be a part): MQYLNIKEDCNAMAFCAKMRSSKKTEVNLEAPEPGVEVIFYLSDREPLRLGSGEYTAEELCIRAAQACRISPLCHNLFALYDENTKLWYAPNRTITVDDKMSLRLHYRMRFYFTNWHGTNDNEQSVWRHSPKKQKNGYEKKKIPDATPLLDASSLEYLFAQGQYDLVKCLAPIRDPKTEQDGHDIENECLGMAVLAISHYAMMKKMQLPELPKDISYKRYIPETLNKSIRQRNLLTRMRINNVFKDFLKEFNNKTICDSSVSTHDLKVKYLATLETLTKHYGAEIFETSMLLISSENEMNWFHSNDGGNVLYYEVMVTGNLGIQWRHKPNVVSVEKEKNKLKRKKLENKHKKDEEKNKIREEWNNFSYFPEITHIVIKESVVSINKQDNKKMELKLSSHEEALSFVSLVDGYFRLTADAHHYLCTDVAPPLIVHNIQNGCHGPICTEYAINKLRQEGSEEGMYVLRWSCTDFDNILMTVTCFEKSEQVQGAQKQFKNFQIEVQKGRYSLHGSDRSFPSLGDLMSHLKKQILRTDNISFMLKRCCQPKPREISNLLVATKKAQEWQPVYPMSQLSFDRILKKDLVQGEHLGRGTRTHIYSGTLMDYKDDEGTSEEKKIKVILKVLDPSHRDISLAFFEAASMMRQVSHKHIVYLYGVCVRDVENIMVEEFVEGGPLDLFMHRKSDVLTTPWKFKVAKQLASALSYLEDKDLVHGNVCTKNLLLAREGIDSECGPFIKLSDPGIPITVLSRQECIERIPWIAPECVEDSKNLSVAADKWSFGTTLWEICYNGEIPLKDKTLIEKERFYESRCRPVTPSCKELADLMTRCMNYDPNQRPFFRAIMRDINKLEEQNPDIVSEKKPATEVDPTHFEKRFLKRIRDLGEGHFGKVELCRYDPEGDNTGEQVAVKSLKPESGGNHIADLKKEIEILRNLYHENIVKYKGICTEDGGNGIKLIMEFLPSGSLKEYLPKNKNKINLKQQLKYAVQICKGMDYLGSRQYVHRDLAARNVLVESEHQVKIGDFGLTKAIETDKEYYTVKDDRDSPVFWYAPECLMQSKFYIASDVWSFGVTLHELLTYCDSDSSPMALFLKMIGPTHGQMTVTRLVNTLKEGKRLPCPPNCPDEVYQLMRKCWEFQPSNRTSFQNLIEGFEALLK
# TYK2 JH2 domain, sequence (P29597 589-875): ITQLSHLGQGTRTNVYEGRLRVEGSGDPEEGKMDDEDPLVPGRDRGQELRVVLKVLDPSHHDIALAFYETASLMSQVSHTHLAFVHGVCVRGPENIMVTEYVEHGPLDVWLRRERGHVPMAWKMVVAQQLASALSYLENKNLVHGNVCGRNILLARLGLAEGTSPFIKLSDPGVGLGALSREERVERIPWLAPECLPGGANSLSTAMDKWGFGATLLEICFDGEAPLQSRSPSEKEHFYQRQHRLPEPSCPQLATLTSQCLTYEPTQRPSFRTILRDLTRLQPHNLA
# human JAK3, sequence (P52333 whole entry): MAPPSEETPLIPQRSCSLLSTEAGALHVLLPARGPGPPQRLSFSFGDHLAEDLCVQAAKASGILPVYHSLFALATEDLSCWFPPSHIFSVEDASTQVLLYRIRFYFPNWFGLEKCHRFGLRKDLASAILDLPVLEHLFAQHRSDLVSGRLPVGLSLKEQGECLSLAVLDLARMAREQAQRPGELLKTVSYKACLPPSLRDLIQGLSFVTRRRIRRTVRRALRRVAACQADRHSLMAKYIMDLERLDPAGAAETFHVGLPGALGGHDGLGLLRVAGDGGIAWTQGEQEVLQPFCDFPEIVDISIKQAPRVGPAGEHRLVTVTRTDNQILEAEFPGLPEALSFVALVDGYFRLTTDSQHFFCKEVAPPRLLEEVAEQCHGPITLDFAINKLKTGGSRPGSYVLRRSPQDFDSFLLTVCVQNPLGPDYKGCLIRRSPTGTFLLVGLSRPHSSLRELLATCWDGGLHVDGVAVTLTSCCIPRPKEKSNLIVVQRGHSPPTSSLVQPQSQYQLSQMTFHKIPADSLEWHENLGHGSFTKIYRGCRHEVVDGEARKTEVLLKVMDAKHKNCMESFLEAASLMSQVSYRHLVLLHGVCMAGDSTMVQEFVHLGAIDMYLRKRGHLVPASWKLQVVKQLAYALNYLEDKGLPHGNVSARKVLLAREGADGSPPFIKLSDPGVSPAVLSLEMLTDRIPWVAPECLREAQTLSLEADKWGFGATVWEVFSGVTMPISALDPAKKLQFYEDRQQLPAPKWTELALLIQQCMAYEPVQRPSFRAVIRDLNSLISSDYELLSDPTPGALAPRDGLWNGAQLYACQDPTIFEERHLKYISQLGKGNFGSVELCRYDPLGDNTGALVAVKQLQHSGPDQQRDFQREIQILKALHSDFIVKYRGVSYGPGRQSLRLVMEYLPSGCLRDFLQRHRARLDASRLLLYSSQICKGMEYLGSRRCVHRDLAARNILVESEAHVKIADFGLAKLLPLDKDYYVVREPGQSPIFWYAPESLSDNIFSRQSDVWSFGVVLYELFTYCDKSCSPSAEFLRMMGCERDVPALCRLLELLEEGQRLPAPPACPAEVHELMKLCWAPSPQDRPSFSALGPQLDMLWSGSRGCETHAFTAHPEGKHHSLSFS
# human JAK2, sequence (O60674 whole entry): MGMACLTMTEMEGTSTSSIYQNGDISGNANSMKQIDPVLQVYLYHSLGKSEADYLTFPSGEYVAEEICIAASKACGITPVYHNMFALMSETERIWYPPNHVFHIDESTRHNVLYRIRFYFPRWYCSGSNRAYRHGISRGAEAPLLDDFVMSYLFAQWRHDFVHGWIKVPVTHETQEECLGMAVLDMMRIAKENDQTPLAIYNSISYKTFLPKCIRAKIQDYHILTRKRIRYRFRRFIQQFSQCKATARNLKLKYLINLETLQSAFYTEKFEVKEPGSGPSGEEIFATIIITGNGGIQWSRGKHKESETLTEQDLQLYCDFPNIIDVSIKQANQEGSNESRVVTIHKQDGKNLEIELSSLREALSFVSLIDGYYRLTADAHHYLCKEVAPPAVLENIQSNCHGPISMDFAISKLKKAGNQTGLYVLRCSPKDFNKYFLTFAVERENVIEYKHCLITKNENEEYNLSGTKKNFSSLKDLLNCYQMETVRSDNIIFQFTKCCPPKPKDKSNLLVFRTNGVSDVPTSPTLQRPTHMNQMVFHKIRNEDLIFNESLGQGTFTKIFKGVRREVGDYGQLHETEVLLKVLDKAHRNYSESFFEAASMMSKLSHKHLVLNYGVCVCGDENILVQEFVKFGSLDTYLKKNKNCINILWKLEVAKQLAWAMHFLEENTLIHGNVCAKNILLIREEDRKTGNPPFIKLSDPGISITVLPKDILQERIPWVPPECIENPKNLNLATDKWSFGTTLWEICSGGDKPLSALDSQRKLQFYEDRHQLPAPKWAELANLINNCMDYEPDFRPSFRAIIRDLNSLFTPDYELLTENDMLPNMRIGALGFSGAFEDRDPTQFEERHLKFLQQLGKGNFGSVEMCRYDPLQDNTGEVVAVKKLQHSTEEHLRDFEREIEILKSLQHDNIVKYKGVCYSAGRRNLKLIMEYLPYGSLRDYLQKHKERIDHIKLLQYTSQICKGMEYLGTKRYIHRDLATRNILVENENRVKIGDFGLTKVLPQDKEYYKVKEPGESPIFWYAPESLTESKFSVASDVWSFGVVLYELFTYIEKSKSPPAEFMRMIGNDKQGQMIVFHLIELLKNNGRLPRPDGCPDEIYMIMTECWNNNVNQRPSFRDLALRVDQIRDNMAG
Compound,IC50 (TYK2 JH2 domain) [nM],IC50 (human JAK2) [nM],IC50 (human JAK3) [nM],IC50 (human JAK1) [nM]
CCC(=O)c1cnc(Nc2ccc(CN3CC[C@H](F)C3)cn2)cc1Nc1cccc(-c2ncn(C)n2)c1OC [Compound 9KK],< 5,≥ 500,≥ 500,≥ 500
CCC(=O)c1cnc(Nc2ccc([C@H](C)N(C)C)cn2)cc1Nc1cccc(-c2ncn(C)n2)c1OC [Compound 9K],< 5,≥ 500,≥ 500,≥ 500
CCC(=O)c1cnc(Nc2cc(CN)ncn2)cc1Nc1cccc(-c2ncn(C)n2)c1OC [Compound 9LLLL],< 5,≥ 500,≥ 500,≥ 500
CCC(=O)c1cnc(Nc2ccc([C@H](C)N3CC[C@H](O)C3)cn2)cc1Nc1cccc(-c2ncn(C)n2)c1OC [Compound 9LL],< 5,≥ 500,50 to 500,≥ 500
CCC(=O)c1cnc(Nc2cc(CNC)ncn2)cc1Nc1cccc(-c2ncn(C)n2)c1OC [Compound 9MMMM],5 to 50,≥ 500,≥ 500,≥ 500
CCC(=O)c1cnc(Nc2ccc(C(C)(C)NC)nn2)cc1Nc1cccc(-c2ncn(C)n2)c1OC [Compound 9MMM],5 to 50,≥ 500,≥ 500,≥ 500
CCC(=O)c1cnc(Nc2ccc([C@@H](C)N3CC[C@H](O)C3)cn2)cc1Nc1cccc(-c2ncn(C)n2)c1OC [Compound 9MM],< 5,≥ 500,≥ 500,≥ 500
CCC(=O)c1cnc(Nc2cc(CN3CCCC3)ncn2)cc1Nc1cccc(-c2ncn(C)n2)c1OC [Compound 9NNNN],< 5,≥ 500,≥ 500,≥ 500
CCC(=O)c1cnc(Nc2ccc(C(C)(C)N(C)C)nn2)cc1Nc1cccc(-c2ncn(C)n2)c1OC [Compound 9NNN],5 to 50,≥ 500,≥ 500,≥ 500
CCC(=O)c1cnc(Nc2ccc([C@H](C)N3CC[C@@H](O)C3)cn2)cc1Nc1cccc(-c2ncn(C)n2)c1OC [Compound 9NN],< 5,≥ 500,≥ 500,≥ 500
CCC(=O)c1cnc(Nc2ccc(C(C)(C)N(C)C)cn2)cc1Nc1cccc(-c2ncn(C)n2)c1OC [Compound 9N],< 5,≥ 500,≥ 500,≥ 500
CCC(=O)c1cnc(Nc2cc(C(C)N)ncn2)cc1Nc1cccc(-c2ncn(C)n2)c1OC (stereo not drawn) [Compound 9OOOO],< 5,≥ 500,≥ 500,≥ 500
CCC(=O)c1cnc(Nc2ccc(CN3CCCC3)nn2)cc1Nc1cccc(-c2ncn(C)n2)c1OC [Compound 9OOO],5 to 50,≥ 500,≥ 500,≥ 500
CCC(=O)c1cnc(Nc2ccc([C@@H](C)N3CC[C@@H](O)C3)cn2)cc1Nc1cccc(-c2ncn(C)n2)c1OC [Compound 9OO],< 5,50 to 500,50 to 500,≥ 500
CCC(=O)c1cnc(Nc2ccc(C3(N)CC3)cn2)cc1Nc1cccc(-c2ncn(C)n2)c1OC [Compound 9O],< 5,≥ 500,≥ 500,≥ 500
CCC(=O)c1cnc(Nc2ccc([C@H](C)N3C[C@@H](O)[C@H](O)C3)cn2)cc1Nc1cccc(-c2ncn(C)n2)c1OC [Compound 9PP],5 to 50,≥ 500,50 to 500,≥ 500
CCC(=O)c1cnc(Nc2ccc(C3(NC)CC3)cn2)cc1Nc1cccc(-c2ncn(C)n2)c1OC [Compound 9P],< 5,≥ 500,≥ 500,≥ 500

Compound,IC50 (TYK2 JH2 domain) [nM],IC50 (human JAK2) [nM],IC50 (human JAK3) [nM],IC50 (human JAK1) [nM]
CCC(=O)c1cnc(Nc2cc(C(C)N(C)C)ncn2)cc1Nc1cccc(-c2ncn(C)n2)c1OC (stereo not drawn) [Compound 9QQQQ],< 5,≥ 500,≥ 500,≥ 500
CCC(=O)c1cnc(Nc2cnc(CN)cn2)cc1Nc1cccc(-c2ncn(C)n2)c1OC [Compound 9QQQ],< 5,≥ 500,≥ 500,≥ 500
CCC(=O)c1cnc(Nc2ccc([C@@H](C)N3C[C@@H](O)[C@H](O)C3)cn2)cc1Nc1cccc(-c2ncn(C)n2)c1OC [Compound 9QQ],5 to 50,≥ 500,50 to 500,≥ 500
CCC(=O)c1cnc(Nc2ccc(C3(N(C)C)CC3)cn2)cc1Nc1cccc(-c2ncn(C)n2)c1OC [Compound 9Q],< 5,≥ 500,≥ 500,≥ 500
CCC(=O)c1cnc(Nc2ccc(CN(C)C)c(C(F)(F)F)n2)cc1Nc1cccc(-c2ncn(C)n2)c1OC [Compound 9RRRR],5 to 50,≥ 500,≥ 500,≥ 500
CCC(=O)c1cnc(Nc2cnc(CNC)cn2)cc1Nc1cccc(-c2ncn(C)n2)c1OC [Compound 9RRR],< 5,≥ 500,≥ 500,≥ 500
CCC(=O)c1cnc(Nc2ccc(CN3CCCCC3)cn2)cc1Nc1cccc(-c2ncn(C)n2)c1OC [Compound 9RR],< 5,≥ 500,≥ 500,≥ 500
CCC(=O)c1cnc(Nc2ccc(CN(C)C3CC3)cn2)cc1Nc1cccc(-c2ncn(C)n2)c1OC [Compound 9R],5 to 50,≥ 500,≥ 500,≥ 500
CCC(=O)c1cnc(Nc2cc(C(F)(F)F)c(CN(C)C)cn2)cc1Nc1cccc(-c2ncn(C)n2)c1OC [Compound 9SSSS],5 to 50,≥ 500,≥ 500,≥ 500
CCC(=O)c1cnc(Nc2cnc(CN(C)C)cn2)cc1Nc1cccc(-c2ncn(C)n2)c1OC [Compound 9SSS],< 5,≥ 500,≥ 500,≥ 500
CCC(=O)c1cnc(Nc2ccc(CN3CCOCC3)cn2)cc1Nc1cccc(-c2ncn(C)n2)c1OC [Compound 9SS],< 5,≥ 500,≥ 500,≥ 500
CCC(=O)c1cnc(Nc2ccc(C(NC)C(F)(F)F)cn2)cc1Nc1cccc(-c2ncn(C)n2)c1OC (stereo not drawn) [Compound 9S],< 5,50 to 500,≥ 500,≥ 500
CCC(=O)c1cnc(Nc2nccc(CN(C)C)c2F)cc1Nc1cccc(-c2ncn(C)n2)c1OC [Compound 9TTTT],5 to 50,≥ 500,≥ 500,≥ 500
CCC(=O)c1cnc(Nc2cnc(C(N)C(F)(F)F)cn2)cc1Nc1cccc(-c2ncn(C)n2)c1OC (stereo not drawn) [Compound 9TTT],5 to 50,≥ 500,≥ 500,≥ 500
CCC(=O)c1cnc(Nc2ccc(CN3[C@H](C)COC[C@@H]3C)cn2)cc1Nc1cccc(-c2ncn(C)n2)c1OC [Compound 9TT],< 5,50 to 500,50 to 500,≥ 500
CCC(=O)c1cnc(Nc2ccc(CN(C)C(C)C)cn2)cc1Nc1cccc(-c2ncn(C)n2)c1OC [Compound 9T],< 5,≥ 500,≥ 500,≥ 500

# Source: patent US20230295119A1, “SUBSTITUTED PYRIDINES FOR THE TREATMENT OF INFLAMMATORY DISEASES” (GOSSAMER BIO SERVICES, INC., priority 2020, published 2023)
